Test [1] deals with T1, Ac-AChBP (acetylcholine binding protein) (Aplysia californica, UniProt Q8WSF8).
T1 construct: The cDNA encoding the full-length Ac-AChBP was cloned into the pFastBac-Dual vector; 6xHis (C); made in house; host or cells: High Five insect cells (baculovirus, Bac-to-Bac; virus made in Sf9)
T1 sequence (Q8WSF8 20-236): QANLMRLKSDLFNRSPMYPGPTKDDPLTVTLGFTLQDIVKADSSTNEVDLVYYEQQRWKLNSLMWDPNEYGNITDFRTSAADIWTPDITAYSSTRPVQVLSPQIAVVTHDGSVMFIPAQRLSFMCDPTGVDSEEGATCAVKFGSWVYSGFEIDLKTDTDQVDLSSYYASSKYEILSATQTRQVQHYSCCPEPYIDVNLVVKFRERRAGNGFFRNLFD
Briefly: biochemical.

The target of test [2] is Aplysia californica acetylcholine binding protein (Ac-AChBP) (Aplysia californica). Briefly: SPR. In general terms: Surface plasmon resonance follows binding to a sensor surface in real time, without labels.

Positions of bridges follow the written chain, without caps; N, C: chain ends. Residues, ends and D or L forms follow the SMILES beside them.

As usually defined, the Kd is the concentration at which binding is half-saturated. Read a high Kd as weaker binding. The molecule `CC[C@H](C)[C@@H]1NC(=O)[C@H](CCC(=O)O)NC(=O)[C@@H]2CCCN2C(=O)[C@H](Cc2cnc[nH]2)NC(=O)[C@H](C)NC(=O)[C@H](C(C)C)NC(=O)[C@H](CC(N)=O)NC(=O)[C@@H]2CSSC[C@H](NC(=O)CN)C(=O)N[C@@H](CSSC[C@@H](C(N)=O)NC1=O)C(=O)N[C@@H](CO)C(=O)N[C@@H](Cc1cnc[nH]1)C(=O)N1CCC[C@H]1C(=O)N[C@@H](C)C(=O)N2` [LvIA (D11A)] (H-GCCSHPACNVAHPEIC-NH2; disulfide 2-8, 3-16) displayed a Kd in test [1] of 17.5 nM. In other words, the double-digit nanomolar range.
Consider `CC[C@H](C)[C@@H]1NC(=O)[C@H](CCC(=O)O)NC(=O)[C@@H]2CCCN2C(=O)[C@H](Cc2cnc[nH]2)NC(=O)[C@H](CC(=O)O)NC(=O)[C@H](C(C)C)NC(=O)[C@H](C)NC(=O)[C@@H]2CSSC[C@H](NC(=O)CN)C(=O)N[C@@H](CSSC[C@@H](C(N)=O)NC1=O)C(=O)N[C@@H](CO)C(=O)N[C@@H](Cc1cnc[nH]1)C(=O)N1CCC[C@H]1C(=O)N[C@@H](C)C(=O)N2` [LvIA (N9A)] (H-GCCSHPACAVDHPEIC-NH2; disulfide 2-8, 3-16), for which binding in test [1] was put at a Kd of 82.8 nM. This Kd lies about 4.7-fold higher than the previous one.
Still for that read-out and setting: with `CC[C@H](C)[C@@H]1NC(=O)[C@H](CCC(=O)O)NC(=O)[C@@H]2CCCN2C(=O)[C@H](Cc2cnc[nH]2)NC(=O)[C@H](CC(=O)O)NC(=O)[C@H](C(C)C)NC(=O)[C@H](CC(N)=O)NC(=O)[C@@H]2CSSC[C@H](NC(=O)CN)C(=O)N[C@@H](CSSC[C@@H](C(N)=O)NC1=O)C(=O)N[C@@H](C)C(=O)N[C@@H](Cc1cnc[nH]1)C(=O)N1CCC[C@H]1C(=O)N[C@@H](C)C(=O)N2` [LvIA (S4A)] (H-GCCAHPACNVDHPEIC-NH2; disulfide 2-8, 3-16) the figure was 23.8 nM.
The same measure, in the same setting: with `CC[C@H](C)[C@@H]1NC(=O)[C@H](CCC(=O)O)NC(=O)[C@@H]2CCCN2C(=O)[C@H](Cc2cnc[nH]2)NC(=O)[C@H](CC(=O)O)NC(=O)[C@H](C(C)C)NC(=O)[C@H](CC(N)=O)NC(=O)[C@@H]2CSSC[C@H](NC(=O)CN)C(=O)N[C@@H](CSSC[C@@H](C(N)=O)NC1=O)C(=O)N[C@@H](CO)C(=O)N[C@@H](Cc1cnc[nH]1)C(=O)N1CCC[C@H]1C(=O)N[C@@H](C)C(=O)N2` [LvIA WT] the figure was 132 nM.
α-conotoxin LvIA (N9A) (peptide): in test [2], the Kd was 82.8 nM. This lies in the double-digit nanomolar range.
Still for that read-out and setting: the result for α-conotoxin LvIA (S4A) (peptide) reads 23.8 nM; that for α-conotoxin LvIA (peptide), 132 nM.

Values taken from paper PMC5563285 (Protein & Cell, 2017).
